Reference: patent publication US7704924B2, “Library of compounds comprising pyrrolobenzodiazepine moieties” (Spirogen Limited, priority 1998, dated 2010)

System: U937 chronic human histiocytic leukemia cells or K562 human chronic myeloid leukemia cells
Experiment: MTT assay of the 27 member PBD library synthesised on crowns (photolytic cleavage, continuous incubation)
Type: cell-based
Settings: 4 days, with or without UVA (365 nm, 2 h) not given
Description: The ability of agents to inhibit the growth of U937 chronic human histiocytic leukemia cells or K562 human chronic myeloid leukemia cells in culture was measured using the MTT assay (Mosmann, 1983). This is based on the ability of viable cells to reduce a yellow soluble tetrazolium salt, 3-(4,5-dimethylthiazolyl)-2,5-diphenyltetrazolium bromide (MTT; Sigma Chemical Co.), to an insoluble purple formazan precipitate. Following drug treatment, the cells were transferred to 96-well microtitre plates with 10^4 cells per well and 8 wells per sample. The plates were incubated at 37° C. in a humidified atmosphere containing 5% CO2. Following incubation of the plates for 4 days (to allow control cells to increase in number by 10-fold), 20 μL of a 5 mg/mL solution of MTT in phosphate-buffered saline was added to each well and the plates incubated further for 5 hours. […] The optical density was then read at a wavelength of 550 nm on a Titertek Multiscan ELISA plate reader and the dose-response curve constructed. […]
Following incubation of the plates for 4 days (to allow control cells to increase in number by 10-fold), 20 μL of a 5 mg/mL solution of MTT in phosphate-buffered saline was added to each well and the plates further incubated for 5 hours. […] The optical density was then read at a wavelength of 550 nm on a Titertek Multiscan ELISA plate reader and the dose-response curve constructed.

SMILES: COc1cc2c(cc1OCc1ccccc1)N=C[C@@H]1CCCN1C2=O [Benzyl DC-81, reference compound]
- % Control at 0.3 μM: 47.4%
